The source made the active and inactive calls.
What was measured:
[1] = target: Delta-type opioid receptor (Homo sapiens, UniProt P41143); assay: Counterscreen for agonists of heterodimerization of the mu 1 (OPRM1) and delta 1 (OPRD1) opioid receptors: Luminescence-based cell-based high throughput dose response assay to identify agonists of OPRD1 homodimerization. [Related pubchem assays (depositor defined):AID504326, AID504355, AID504692, AID504904, AID504905]; type: functional
Mu-type opioid receptor = Mu-type opioid receptor (Homo sapiens, UniProt P35372); assay: Counterscreen for agonists of heterodimerization of the mu 1 (OPRM1) and delta 1 (OPRD1) opioid receptors: Luminescence-based cell-based high throughput dose response assay to identify agonists of OPRM1 homodimerization.; type: functional;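 also: U2OS cells expressing OPRM1 and beta-arrestin as split beta-galactosidase partners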
[2] = target: 5-hydroxytryptamine receptor 5A (Homo sapiens, UniProt P47898); assay: Counterscreen for agonists of OPRM1-OPRD1 heterodimerization: luminescence-based cell-based high throughput dose response assay to identify agonists of 5-hydroxytryptamine (serotonin) 5A receptor (HTR5A). [Related pubchem assays (depositor defined):AID504326, AID504355, AID504692, AID504904, AID504905]; type: functional
[3] = insulin promoter down-regulators in MIN6 cells, imaging, high-content screening, mouse beta cells (AID 1628); type: functional
[4] = cytotoxicity in MIN6 insulinoma cells, dose response, cytotoxicity control, cell-based, mouse insulinoma (AID 2122); type: functional;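 also: confirmatory high-throughput counterscreen run to flag cytotoxic compounds; mouse MIN-6 beta cells carrying an insulin promoter eGFP reporter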
[5] = Shn3 3'UTR reporter inhibitors, dose response, cell-based, Clone20 osteoblasts, firefly luciferase, cherry-picked (AID 624132); type: functional;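 also: firefly luciferase luminescence from reporter carrying the Shn3 3'UTR in osteoblasts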
[6] = HepG2 cell cytotoxicity, dose response, cytotoxicity control for Shn3 inhibitor project, CellTiter-Glo, cherry-picked (AID 624134); type: functional, cell-based
[7] = control 3'UTR Renilla luciferase suppression, dose response, counter-screen for Shn3 inhibitor project, cell-based, Clone20-Shn3RL, cherry-picked (AID 624133); type: functional
Protein Wnt-3a = Protein Wnt-3a (Mus musculus, UniProt P27467); assay: Wnt3a-driven reporter signaling inhibition, dose response, selectivity assay for Gli-SUFU antagonist project, Wnt-LIGHT cells, luminescence (AID 651570); type: functional; details: read-out: IC50_Mean;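 also: Wnt-LIGHT reporter cells stimulated with conditioned medium from Wnt3a-producing cells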
[8] = target: T1, Tyrosine-protein phosphatase non-receptor type 7 (Homo sapiens, UniProt P35236); type: functional
T1 sequence (P35236 whole entry): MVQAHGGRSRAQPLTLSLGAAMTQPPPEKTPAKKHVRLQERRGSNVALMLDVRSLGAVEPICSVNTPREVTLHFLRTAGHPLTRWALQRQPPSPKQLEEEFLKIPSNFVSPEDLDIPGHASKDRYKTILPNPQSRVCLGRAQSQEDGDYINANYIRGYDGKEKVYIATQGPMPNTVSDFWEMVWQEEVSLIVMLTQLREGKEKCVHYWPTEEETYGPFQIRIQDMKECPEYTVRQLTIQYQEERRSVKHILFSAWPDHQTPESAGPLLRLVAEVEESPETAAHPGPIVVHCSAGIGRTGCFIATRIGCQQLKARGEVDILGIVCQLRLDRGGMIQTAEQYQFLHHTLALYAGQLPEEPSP

[9] = target: T2, Tyrosine-protein phosphatase non-receptor type 22 (Homo sapiens, UniProt Q9Y2R2); type: functional
T2 sequence (Q9Y2R2 whole entry): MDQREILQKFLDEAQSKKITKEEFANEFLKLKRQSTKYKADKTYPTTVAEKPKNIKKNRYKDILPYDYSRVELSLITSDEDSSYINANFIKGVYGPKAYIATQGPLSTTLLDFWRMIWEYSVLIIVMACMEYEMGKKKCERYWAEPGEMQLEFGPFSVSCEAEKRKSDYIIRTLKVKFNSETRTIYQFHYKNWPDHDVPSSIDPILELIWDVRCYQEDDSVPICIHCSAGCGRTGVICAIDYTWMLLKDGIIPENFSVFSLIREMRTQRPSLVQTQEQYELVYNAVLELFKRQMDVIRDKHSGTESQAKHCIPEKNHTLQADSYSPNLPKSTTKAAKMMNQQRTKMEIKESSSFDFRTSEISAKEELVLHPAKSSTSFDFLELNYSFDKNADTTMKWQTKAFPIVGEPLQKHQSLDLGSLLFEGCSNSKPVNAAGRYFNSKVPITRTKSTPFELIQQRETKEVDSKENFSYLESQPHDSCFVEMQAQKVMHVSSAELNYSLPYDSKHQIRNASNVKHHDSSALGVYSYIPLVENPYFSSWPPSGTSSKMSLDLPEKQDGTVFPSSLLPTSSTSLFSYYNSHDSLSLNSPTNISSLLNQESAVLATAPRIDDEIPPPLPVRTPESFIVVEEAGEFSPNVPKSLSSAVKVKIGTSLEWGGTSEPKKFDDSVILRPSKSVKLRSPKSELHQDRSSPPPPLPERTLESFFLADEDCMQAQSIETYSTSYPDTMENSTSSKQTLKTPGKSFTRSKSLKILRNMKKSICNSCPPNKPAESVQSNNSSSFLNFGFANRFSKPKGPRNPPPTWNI

[10] = target: T2, Tyrosine-protein phosphatase non-receptor type 22; type: functional; remark: listed apart in the source
Cytochrome P450 2D6 = Cytochrome P450 2D6 (Homo sapiens, UniProt P10635);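 also: CYP2D6 member of a cytochrome P450 panel assay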
[11] = inhibitors of intracellular T. cruzi replication, confirmation, NIH3T3 host cells, beta-gal luminescence (AID 2044); type: functional, cell-based;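 also: intracellular parasites grown in NIH/3T3 mouse fibroblasts as host cells; luminescent beta-galactosidase reporter signal from transgenic T. cruzi replicating inside host cells; inhibitors lower the luminescence signal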
[12] = cytotoxicity toward NIH3T3 fibroblasts, dose response, counter-screen, cell-based, ATP luminescence, mouse fibroblasts (AID 2010); type: functional;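 also: cells exposed to compound for about 90 hours before reading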
Coagulation factor XII = Coagulation factor XII (Homo sapiens, UniProt P00748); type: functional;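 also: activated factor XIIa alpha cleaving a fluorogenic AMC peptide substrate; inhibitor potency from loss of enzyme activity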
[13] = Luminescence Cell-Based Dose Response HTS to Identify Activators of Luciferase Translation or Activity in H4 […] Cells. [Related pubchem assays: 1829 (Project Summary), 1814 (Primary HTS)]; type: functional
H4 = assay: Luminescence Cell-Based Dose Response HTS to Identify Activators of 5'UTR Stem-Loop Driven Prion Protein mRNA Translation in H4 Neuroglioblastoma Cells. [Related pubchem assays: 1829 (Project Summary), 1814 (Primary HTS)]; type: functional; details: Homo sapiens
[14] = Luminescence Cell-Based Dose Retest to Confirm Inhibitors of Cancer Stem Cells. [Related pubchem assays (depositor defined):AID2717, AID2721]; type: functional; details: Homo sapiens
[15] = cytotoxicity in HMLE control line with eGFP shRNA, dose response, counter-screen for HMLE_sh_ECad selective toxicity project, cell-based, HMLE_sh_eGFP, luminescence (AID 463074); type: functional, Homo sapiens;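 also: HMLE human mammary epithelial cells expressing control shRNA against eGFP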
[16] = HepG2 cell cytotoxicity, dose response, cytotoxicity control, ATP luminescence, cherry-pick, activator set 2 (AID 1053143); type: functional, cell-based
CHO-K1 = assay: Counterscreen for antagonists of the orexin 1 receptor (OX1R; HCRTR1): Homogeneous time resolved fluorescence (HTRF)-based cell-based dose response assay to identify antagonists of the parental CHO-K1 cell line. [Related pubchem assays (depositor defined):AID434989, AID435008, AID463079, AID485270, AID492963, AID492964, AID492965, AID493232, AID504699, AID504701]; type: functional; details: Cricetulus griseus;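 also: potency for inhibition of ATP-stimulated IP1 production as antagonists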
[17] = Counterscreen for antagonists of the orexin 1 receptor (OX1R; HCRTR1): Fluorescence-based cell-based high throughput dose response assay to identify antagonists of the parental CHO cell line. [Related pubchem assays (depositor defined):AID434989, AID435008, AID463079, AID485270, AID492963, AID492964, AID492965, AID493232, AID504699, AID504701]; type: functional
[18] = target: T3, Orexin/Hypocretin receptor type 1 (Homo sapiens, UniProt O43613); assay: Homogeneous Time Resolved Fluorescence (HTRF)-based cell-based high throughput dose response assay for antagonists of the orexin 1 receptor (OX1R; HCRTR1). [Related pubchem assays (depositor defined):AID434989, AID435008, AID463079, AID485270, AID492963, AID492964, AID492965, AID493232, AID504717, AID504718]; type: functional
T3 sequence (O43613 whole entry): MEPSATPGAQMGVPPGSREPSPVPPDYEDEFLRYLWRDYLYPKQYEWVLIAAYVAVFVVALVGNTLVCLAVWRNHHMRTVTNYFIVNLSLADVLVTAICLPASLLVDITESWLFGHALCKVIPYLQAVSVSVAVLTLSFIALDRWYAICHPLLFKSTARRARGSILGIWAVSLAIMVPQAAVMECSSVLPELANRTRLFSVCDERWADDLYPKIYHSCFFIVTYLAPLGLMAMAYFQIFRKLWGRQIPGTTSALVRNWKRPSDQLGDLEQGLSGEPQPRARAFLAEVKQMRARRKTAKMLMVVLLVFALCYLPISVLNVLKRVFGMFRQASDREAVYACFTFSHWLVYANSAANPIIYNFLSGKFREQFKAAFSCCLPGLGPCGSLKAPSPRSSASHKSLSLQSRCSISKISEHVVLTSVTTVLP

[19] = target: T3, Orexin/Hypocretin receptor type 1; assay: Fluorescence-based cell-based high throughput dose response assay for antagonists of the orexin 1 receptor (OX1R; HCRTR1). [Related pubchem assays (depositor defined):AID434989, AID435008, AID463079, AID485270, AID492963, AID492964, AID492965, AID493232, AID504717, AID504718]; type: functional
[20] = target: T4, Alkaline phosphatase, tissue-nonspecific isozyme (Homo sapiens, UniProt P05186)
T4 sequence (P05186 whole entry): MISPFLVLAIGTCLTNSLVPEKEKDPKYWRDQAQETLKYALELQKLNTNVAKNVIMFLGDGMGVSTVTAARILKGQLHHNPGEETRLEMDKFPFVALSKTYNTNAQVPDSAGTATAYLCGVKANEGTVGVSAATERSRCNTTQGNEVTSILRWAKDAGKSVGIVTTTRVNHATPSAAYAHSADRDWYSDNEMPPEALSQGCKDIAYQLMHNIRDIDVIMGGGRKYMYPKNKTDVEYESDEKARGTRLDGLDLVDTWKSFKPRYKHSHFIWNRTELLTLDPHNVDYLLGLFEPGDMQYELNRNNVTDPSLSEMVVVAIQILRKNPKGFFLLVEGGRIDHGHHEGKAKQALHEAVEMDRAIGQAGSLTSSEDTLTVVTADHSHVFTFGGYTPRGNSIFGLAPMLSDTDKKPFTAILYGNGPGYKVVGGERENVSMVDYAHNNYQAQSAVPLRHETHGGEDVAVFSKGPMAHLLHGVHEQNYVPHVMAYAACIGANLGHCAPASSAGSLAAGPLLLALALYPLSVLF

[21] = target: T5, Polyadenylate-binding protein 1 (Homo sapiens, UniProt P11940); assay: PABP1 MLLE–PAM2 interaction inhibitors, dose response, miRNA deadenylation inhibitor project, biochemical, fluorescence polarization, Cy5-PAM2 peptide, secondary (AID 602260); type: functional; details: read-out: IC50_Mean
[22] = target: T5, Polyadenylate-binding protein 1; assay: PABP1 MLLE–PAM2 binding inhibitor potency, dose response, biochemical, fluorescence polarization, FITC-PAM2 peptide (AID 602259); type: functional; details: read-out: IC50_Mean
cells [23] = type: functional, cell-based
cells [24] = type: functional, cell-based; remark: listed apart in the source
[25] = target: FAD-linked sulfhydryl oxidase ALR (Homo sapiens, UniProt P55789); assay: inhibitors of human ALR sulfhydryl oxidase, dose response, biochemical, H2O2 detection, luminescence, cherry-pick (AID 493248)
Cytochrome P450 2C19 = Cytochrome P450 2C19 (Homo sapiens, UniProt P33261); assay: Cytochrome panel assay with activity outcomes. Panel member name: p450-cyp2c19 Compounds with AC50 equal or less than 10 uM are considered active; type: functional; details: read-out: AC50
Cytochrome P450 2C9 = Cytochrome P450 2C9 (Homo sapiens, UniProt P11712)
Sequence of Cytochrome P450 2C9 (P11712 whole entry): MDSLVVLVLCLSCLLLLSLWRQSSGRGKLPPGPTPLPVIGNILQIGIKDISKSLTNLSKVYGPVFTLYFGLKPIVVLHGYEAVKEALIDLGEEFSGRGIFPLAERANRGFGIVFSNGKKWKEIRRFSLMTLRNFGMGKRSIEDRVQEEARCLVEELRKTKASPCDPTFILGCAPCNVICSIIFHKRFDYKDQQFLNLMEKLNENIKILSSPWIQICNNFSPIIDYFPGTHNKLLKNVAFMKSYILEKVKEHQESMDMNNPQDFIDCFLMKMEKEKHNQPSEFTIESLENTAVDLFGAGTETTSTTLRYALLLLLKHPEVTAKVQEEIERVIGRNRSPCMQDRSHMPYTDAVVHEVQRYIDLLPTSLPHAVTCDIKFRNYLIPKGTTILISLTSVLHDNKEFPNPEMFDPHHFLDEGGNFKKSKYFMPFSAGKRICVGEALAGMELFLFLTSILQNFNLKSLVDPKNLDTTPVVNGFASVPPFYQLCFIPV

T5 sequence (P11940 whole entry): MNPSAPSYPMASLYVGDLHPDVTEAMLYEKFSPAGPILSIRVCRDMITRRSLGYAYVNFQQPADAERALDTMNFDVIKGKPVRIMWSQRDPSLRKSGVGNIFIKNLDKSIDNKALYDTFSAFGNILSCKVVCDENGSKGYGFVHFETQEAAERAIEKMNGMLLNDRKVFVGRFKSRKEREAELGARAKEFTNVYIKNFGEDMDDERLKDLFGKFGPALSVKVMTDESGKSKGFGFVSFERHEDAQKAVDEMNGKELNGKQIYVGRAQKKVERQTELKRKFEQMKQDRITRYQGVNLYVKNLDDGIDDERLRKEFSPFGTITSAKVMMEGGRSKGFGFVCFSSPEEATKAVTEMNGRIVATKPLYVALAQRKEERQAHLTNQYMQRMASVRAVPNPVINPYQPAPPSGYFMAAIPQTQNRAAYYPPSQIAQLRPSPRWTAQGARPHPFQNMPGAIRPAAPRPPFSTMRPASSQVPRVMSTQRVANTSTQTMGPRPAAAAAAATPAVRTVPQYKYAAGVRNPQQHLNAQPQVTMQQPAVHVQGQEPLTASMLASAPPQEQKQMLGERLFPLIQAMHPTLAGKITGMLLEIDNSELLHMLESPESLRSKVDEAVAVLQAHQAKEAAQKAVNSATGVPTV
Sequence of Coagulation factor XII (P00748 20-372 limits assumed): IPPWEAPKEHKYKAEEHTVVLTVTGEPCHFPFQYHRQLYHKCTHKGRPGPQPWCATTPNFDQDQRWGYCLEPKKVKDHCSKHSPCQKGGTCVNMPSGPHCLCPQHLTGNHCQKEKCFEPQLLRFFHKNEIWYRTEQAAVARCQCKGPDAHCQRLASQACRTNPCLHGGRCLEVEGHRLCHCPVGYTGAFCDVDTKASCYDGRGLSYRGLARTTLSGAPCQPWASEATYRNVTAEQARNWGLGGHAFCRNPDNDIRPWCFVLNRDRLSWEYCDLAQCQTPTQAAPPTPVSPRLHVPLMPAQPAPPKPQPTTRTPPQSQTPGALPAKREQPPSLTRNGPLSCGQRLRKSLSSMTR
Sequence of Coagulation factor XII (P00748 373-615 limits assumed): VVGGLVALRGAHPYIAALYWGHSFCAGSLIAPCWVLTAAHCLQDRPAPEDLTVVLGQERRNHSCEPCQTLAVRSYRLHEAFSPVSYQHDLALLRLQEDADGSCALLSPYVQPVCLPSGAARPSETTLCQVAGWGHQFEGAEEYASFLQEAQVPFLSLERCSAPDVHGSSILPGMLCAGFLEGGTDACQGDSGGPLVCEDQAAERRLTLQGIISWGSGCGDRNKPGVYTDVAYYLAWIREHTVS
Sequence of Cytochrome P450 2D6 (P10635 whole entry): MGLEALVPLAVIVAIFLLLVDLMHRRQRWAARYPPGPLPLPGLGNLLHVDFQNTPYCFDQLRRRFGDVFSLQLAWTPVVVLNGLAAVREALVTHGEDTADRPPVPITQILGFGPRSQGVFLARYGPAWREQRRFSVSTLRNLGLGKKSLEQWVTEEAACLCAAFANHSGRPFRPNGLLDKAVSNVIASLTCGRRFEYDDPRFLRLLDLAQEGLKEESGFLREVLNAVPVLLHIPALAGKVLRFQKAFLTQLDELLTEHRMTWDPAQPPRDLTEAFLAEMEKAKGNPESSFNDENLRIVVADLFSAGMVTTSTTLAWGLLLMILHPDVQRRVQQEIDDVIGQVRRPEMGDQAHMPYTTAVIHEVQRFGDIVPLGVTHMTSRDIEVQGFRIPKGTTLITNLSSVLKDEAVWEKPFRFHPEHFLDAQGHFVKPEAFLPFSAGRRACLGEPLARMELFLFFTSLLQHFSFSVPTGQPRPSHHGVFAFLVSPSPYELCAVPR
Sequence of Mu-type opioid receptor (P35372 whole entry): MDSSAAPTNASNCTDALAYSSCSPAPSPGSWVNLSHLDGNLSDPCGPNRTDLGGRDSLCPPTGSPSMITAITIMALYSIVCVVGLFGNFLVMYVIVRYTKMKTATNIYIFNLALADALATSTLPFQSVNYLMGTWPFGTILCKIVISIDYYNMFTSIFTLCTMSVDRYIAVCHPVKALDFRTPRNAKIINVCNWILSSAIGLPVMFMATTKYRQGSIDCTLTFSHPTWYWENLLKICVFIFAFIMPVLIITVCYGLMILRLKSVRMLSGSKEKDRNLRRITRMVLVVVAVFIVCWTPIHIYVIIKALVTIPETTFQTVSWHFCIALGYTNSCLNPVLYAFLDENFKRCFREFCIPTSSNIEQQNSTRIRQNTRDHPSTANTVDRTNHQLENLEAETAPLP
Sequence of Delta-type opioid receptor (P41143 whole entry): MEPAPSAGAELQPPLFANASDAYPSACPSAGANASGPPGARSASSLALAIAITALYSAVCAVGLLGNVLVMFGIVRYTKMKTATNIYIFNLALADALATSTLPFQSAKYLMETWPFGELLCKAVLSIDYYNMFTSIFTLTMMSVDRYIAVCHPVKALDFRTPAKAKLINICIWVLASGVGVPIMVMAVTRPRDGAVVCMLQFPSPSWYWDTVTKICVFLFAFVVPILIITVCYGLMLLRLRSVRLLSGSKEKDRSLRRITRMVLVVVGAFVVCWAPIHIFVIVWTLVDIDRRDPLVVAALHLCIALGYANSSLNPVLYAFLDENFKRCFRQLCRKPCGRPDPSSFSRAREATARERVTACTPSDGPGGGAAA
Sequence of Cytochrome P450 2C19 (P33261 whole entry): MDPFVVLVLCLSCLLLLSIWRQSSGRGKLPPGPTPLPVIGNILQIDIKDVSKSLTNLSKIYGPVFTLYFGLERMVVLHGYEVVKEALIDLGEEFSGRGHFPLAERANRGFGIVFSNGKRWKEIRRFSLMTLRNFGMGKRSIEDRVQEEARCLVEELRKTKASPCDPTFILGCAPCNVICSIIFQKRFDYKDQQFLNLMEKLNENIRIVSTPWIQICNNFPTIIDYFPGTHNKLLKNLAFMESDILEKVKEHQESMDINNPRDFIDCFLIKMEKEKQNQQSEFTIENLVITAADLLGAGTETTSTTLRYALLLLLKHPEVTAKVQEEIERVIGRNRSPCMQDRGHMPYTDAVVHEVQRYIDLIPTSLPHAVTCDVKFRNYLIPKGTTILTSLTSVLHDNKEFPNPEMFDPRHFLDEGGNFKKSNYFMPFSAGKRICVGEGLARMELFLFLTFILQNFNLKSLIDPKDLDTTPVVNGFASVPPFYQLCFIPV
Sequence of 5-hydroxytryptamine receptor 5A (P47898 whole entry): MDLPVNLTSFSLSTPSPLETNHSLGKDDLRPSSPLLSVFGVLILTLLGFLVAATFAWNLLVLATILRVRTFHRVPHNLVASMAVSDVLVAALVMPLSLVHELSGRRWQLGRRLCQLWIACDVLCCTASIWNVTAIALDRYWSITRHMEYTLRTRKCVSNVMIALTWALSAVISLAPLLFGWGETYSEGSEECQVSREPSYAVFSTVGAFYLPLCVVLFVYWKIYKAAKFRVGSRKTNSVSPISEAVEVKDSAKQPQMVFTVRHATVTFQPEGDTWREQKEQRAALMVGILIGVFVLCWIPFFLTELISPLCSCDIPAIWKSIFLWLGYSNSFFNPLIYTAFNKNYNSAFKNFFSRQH
Sequence of FAD-linked sulfhydryl oxidase ALR (P55789 whole entry): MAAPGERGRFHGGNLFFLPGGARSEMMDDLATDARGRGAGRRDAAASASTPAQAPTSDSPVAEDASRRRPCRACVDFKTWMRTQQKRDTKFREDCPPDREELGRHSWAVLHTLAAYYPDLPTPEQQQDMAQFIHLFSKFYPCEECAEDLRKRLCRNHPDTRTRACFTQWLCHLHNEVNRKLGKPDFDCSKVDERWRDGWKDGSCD
Sequence of Protein Wnt-3a (P27467 whole entry): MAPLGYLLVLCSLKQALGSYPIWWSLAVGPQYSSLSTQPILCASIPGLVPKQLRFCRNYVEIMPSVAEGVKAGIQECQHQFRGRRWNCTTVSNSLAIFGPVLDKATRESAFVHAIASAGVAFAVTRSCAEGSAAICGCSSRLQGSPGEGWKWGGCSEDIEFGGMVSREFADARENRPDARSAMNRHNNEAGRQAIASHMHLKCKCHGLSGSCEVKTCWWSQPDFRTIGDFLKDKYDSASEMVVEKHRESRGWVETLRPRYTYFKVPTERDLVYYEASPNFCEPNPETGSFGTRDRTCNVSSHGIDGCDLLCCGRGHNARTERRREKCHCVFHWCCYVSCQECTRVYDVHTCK

O=C(NCCc1ccc(Cl)cc1)C1CCC(CNc2nc(=S)[nH]c3ccccc23)CC1 (configuration not stated)
EC50 [1]: > 92.5 µM (inactive)
EC50 (Mu-type opioid receptor): > 92.5 µM (inactive)
EC50 [2]: > 92.5 µM (inactive)

CCc1c(C)nc2ncnn2c1N1CCN(S(=O)(=O)c2ccc(OC)cc2)CC1
IC50 [3]: 1.35 µM (active)
IC50 [4]: 936 nM (active)
AC50 [5]: 1.16 µM (active)
AC50 [6]: 5.28 µM (active)
AC50 [7]: 3.52 µM (active)
IC50 (Protein Wnt-3a): 5.74 µM (active)

CCOC(=O)CC1(NC(=O)c2cc(COc3cncc(Cl)c3)on2)CCCCC1
IC50 [8]: > 79.4 µM (inactive)
IC50 [9]: > 79.4 µM (inactive)
IC50 [10]: > 79.4 µM (inactive)

Cc1ccsc1/C=C1/SC(=O)N(CC(=O)N2CCOCC2)C1=O
AC50 (Cytochrome P450 2D6): inconclusive

COc1ccc(CN2CCN(C(=O)C3CCC(CNS(=O)(=O)c4ccccc4)CC3)CC2)c(OC)c1OC (configuration not stated)
EC50 [11]: 503 nM (active)
EC50 [12]: > 60 µM (not active)
IC50 (Coagulation factor XII): > 50 µM (inactive)

Cc1oc(=O)c(NC(=O)c2cccc(Cl)c2)cc1C(=O)c1ccccc1
EC50 [13]: 6.62 µM (active)
EC50 (H4): 90.8 µM (active)
AC50 [14]: 16.4 µM (active)
AC50 [15]: 21.7 µM (active)
AC50 [16]: 26 µM (active)

C[C@@H]1CN([C@@H](C)CO)C(=O)c2cccc(NC(=O)Nc3ccc(F)cc3)c2O[C@@H]1CN(C)Cc1ccc(Oc2ccccc2)cc1
IC50 (CHO-K1): > 66.2 µM (inactive)
IC50 [17]: 23.7 µM (inactive)
IC50 [18]: > 66.2 µM (inactive)
IC50 [19]: 11.2 µM (inactive)

COCCNC(=S)N/N=C(\C)c1ccccc1O
IC50 [3]: 2.44 µM (active)
IC50 [4]: 1010 nM (active)
EC50 [20]: 70.7 µM (not active)
IC50 [21]: > 66 µM (inactive)
IC50 [22]: > 66 µM (inactive)

Cc1ccc(/C=N\Nc2nc3cc(Cl)ccc3[nH]2)o1
EC50 (cells [23]): > 350 µM (not active)
EC50 (cells [24]): 27.6 µM (active)
IC50 (Coagulation factor XII): > 50 µM (inactive)
AC50 [25]: 289 nM (active)
AC50 (Cytochrome P450 2C19): 28.2 µM (inconclusive)
AC50 (Cytochrome P450 2C9): 7.08 µM (inconclusive)

C[N+]1(CCC(=O)c2ccco2)C[C@H]2CC[C@H](CC2)C1 (some centres not stated)
AC50 (Cytochrome P450 2D6): inconclusive

Reference: ChEMBL document CHEMBL1201862, “PubChem BioAssay data set” (2004)
